Our source for the IC50 values is ChEMBL document CHEMBL2203092, “Clerodane diterpenoids from Croton crassifolius” (J Nat Prod, 2012).

Each structure is given as a SMILES string. In brackets after ≈: the same amount, converted by molar mass.

The subject of the test is Human alphaherpesvirus 1. Put plainly: Antiviral activity against HSV1 F ATCC VR733 infected in african green monkey Vero cells assessed as reduction of virus-induced cytopathic effect after 3 days. The test is classed as functional, organism-based. The conditions noted are these: Human alphaherpesvirus 1, Strain F ATCC VR 733, Vero, 72 h.
As to `C[C@@H]1CC(=O)[C@@H]2[C@@H](C(=O)O)CCC[C@H]2[C@@]12C[C@@H](c1ccoc1)OC2=O`, the 50% inhibitory concentration (IC50) worked out at 25 µg/mL (≈ 72.2 µM).

Consider `Nc1nc2c(ncn2COCCO)c(=O)[nH]1` [ACYCLOVIR], for which the IC50 is 0.2 µg/mL (≈ 0.888 µM).

For `COC(=O)[C@@]1(C)CC(=O)C=C2C1=CC[C@@H](C)[C@]2(C)CC(=O)c1ccoc1` [CRASSIFOLIN C], the half-inhibitory concentration (IC50) came to 50 µg/mL (≈ 140 µM).

As to `COC(=O)[C@]12CCCC3=C1[C@@H](C[C@H](C)[C@@]31C[C@H](c3ccoc3)OC1=O)OC2` [CRASSIFOLIN D], the IC50 is 50 µg/mL (≈ 134 µM).

Take `COC(=O)[C@@]1(C)C2=C(CC[C@H]1OC(C)=O)[C@@]1(C[C@@H](c3ccoc3)OC1=O)[C@H](C)CC2` [CRASSIFOLIN F]: the half-maximal inhibitory concentration (IC50) stood at 50 µg/mL (≈ 120 µM).

`COC(=O)[C@]1(C)CCCC2=C1CC[C@@H](C)[C@]21C[C@@H](c2ccoc2)OC1=O` [PENDULIFLAWOROSIN]: the IC50 came to 50 µg/mL (≈ 139 µM).
